Measurements taken from ChEMBL document CHEMBL1158836, “Cytotoxic sesquiterpenes from Aplysia dactylomela” (J Nat Prod, 2005).
Starred links: 1 amine or outer side, 2 acyl side, 3 side chain; linkers in the order of their positions; H or OH if unused. Positions of bridges follow the written chain, without caps; N, C: chain ends. Non-standard residues stand in square brackets, D forms with d. Residues, ends and D or L forms follow the SMILES beside them. Chains are numbered I, II in the order given. Actinocin(1to9) = Cc1c2oc3c(C)ccc(C(=O)[*:2])c3nc-2c(C(=O)[*:1])c(N)c1=O; NMeV = CN[C@H](C(=O)O)C(C)C; Sar = CNCC(=O)O

What was measured:
HeLa [1] = test: Cytotoxicity against human HeLa cells in lag-phase after 48 hrs by MTT assay; assay type: functional, cell-based
HeLa [2] = test: Cytotoxicity against human HeLa cells in log-phase after 48 hrs by MTT assay; assay type: functional, cell-based
HEp-2 [3] = test: Cytotoxicity against human Hep2 cells in lag-phase after 48 hrs by MTT assay; assay type: functional, cell-based; details: HEp-2, 48 h
HEp-2 [4] = test: Cytotoxicity against human Hep2 cells in log-phase after 48 hrs by MTT assay; assay type: functional, cell-based; details: HEp-2, 48 h
Vero [5] = test: Cytotoxicity against african green monkey Vero cells in lag-phase after 48 hrs by MTT assay; assay type: cell-based; details: Chlorocebus sabaeus
Vero [6] = test: Cytotoxicity against african green monkey Vero cells in log-phase after 48 hrs by MTT assay; assay type: cell-based; details: Chlorocebus sabaeus

Compound | IC50 (HeLa [1]) [µM] | IC50 (HeLa [2]) [µM] | IC50 (HEp-2 [3]) [µM] | IC50 (HEp-2 [4]) [µM] | IC50 (Vero [5]) [µM] | IC50 (Vero [6]) [µM]
CC(=O)O[C@@H]1C[C@@H](Br)C(C)(C)O[C@]1(C)[C@H]1CC[C@](C)(Cl)[C@@H](Br)C1 | > 42 | > 42 | > 42 | > 42 | 31.9 | 33.6
C=C1C[C@H](OC(C)=O)[C@H](Br)C(C)(C)[C@]12CC=C(C)CC2 [ACETYLDESCHLOROELATOL] | > 58 | > 58 | > 58 | > 58 | > 58 | > 58
C=C1C[C@H](OC(C)=O)[C@H](Br)C(C)(C)[C@@]12CCC(C)=C(Cl)C2 [ACETYLELATOL] | 50.3 | 13.7 | 28 | 22.4 | > 53 | 44.6
CC1(C)O[C@](C)([C@H]2CC[C@](C)(Cl)[C@@H](Br)C2)[C@H](O)C[C@H]1Br [CAESPITOL] | 26.9 | 30.6 | > 46 | > 46 | 25.5 | 25.8
Cc1c2oc3c(C)ccc(C(=O)N[C@@H]4C(=O)N[C@H](C(C)C)C(=O)N5CCC[C@H]5C(=O)N(C)CC(=O)N(C)[C@@H](C(C)C)C(=O)O[C@@H]4C)c3nc-2c(C(=O)N[C@@H]2C(=O)N[C@H](C(C)C)C(=O)N3CCC[C@H]3C(=O)N(C)CC(=O)N(C)[C@@H](C(C)C)C(=O)O[C@@H]2C)c(N)c1=O [DACTINOMYCIN] (I: T[dV]P[Sar][NMeV] / II: T[dV]P[Sar][NMeV]; ester I:1-I:C, II:1-II:C; linker I:N-II:N via Actinocin(1to9)) | 0.011 | 0.001 | 0.191 | 0.006 | 0.071 | 0.001
C=C1C[C@H](O)[C@H](Br)C(C)(C)[C@]12CC=C(C)CC2 [DESCHLOROELATOL] | > 67 | > 67 | > 67 | > 67 | > 67 | > 67
C=C1C[C@H](O)[C@H](Br)C(C)(C)[C@@]12CCC(C)=C(Cl)C2 [ELATOL] | 4.1 | 1.3 | 2.4 | 2 | 2.3 | 25
